Patent publication US5696276A, “Process for preparing 5,8-dihydroxynaphthoquinone derivatives, novel 5,8-dihydroxynaphthoquinone derivatives and their use as anticancer agent” (Kuhnil Pharmaceutical Co., Ltd., priority 1993, dated 1997)
Values after ≈ are worked out from the molar mass of the structure shown.

Experiments:
[1] = tested on: L1210 cells; assay: Cytotoxic activity against L1210 cells; assay type: cell-based; details: Mus musculus; L1210 cells, 48 hours, 37° C.; read-out: ED50, cytotoxic activity against L1210
Method: To obtain L1210 cells in a logarithmic phase for cytotoxic activity test, in a 250 ml Erlenmeyer flask with a screw cap including Fisher medium warmed to 36° to 37° C. L1210 cells were adjusted to a concentration of 2-3×10^5 cells/ml and then cultured, before 24 hours from the beginning of experiment. Then, the culture solution thus obtained was suspended to prepare a L1210 cell suspension having a concentration of about 0.8-1.0×10^6 cells/ml. Test sample was dissoved in ethanol or dimethylsulfoxide in a certain concentration just before the experiment. 0.1 ml of the sample solution was diluted 10 times with 0.9 ml of a fresh medium. To each screw-capped test tube were added 100, 50, 25 μl, respectively, of the sample dilutions and then added 5 ml of the cell suspension (5×10^4 cells/ml) prepared above to use as the test group. To the test tubes for the control group (2√n: n=number of the samples), only 5 ml of the cell suspension was added. All test tubes were cultured for 48 hours in a CO2 incubator at 37° C. and then the number of cells was counted using a haemacytometer.
(§1) The ED50 value is defined as a concentration (μg/ml) of the sample which inhibits the growth of cancer cells by 50% of the control group and determined according to a method described in NIC's mannual (NIC=National Cancer Institue, U.S.A.). The growth rate Y(%) of cells in the presence of the test sample in each concentration was calculated according to the followign equation: […]
(§2) In the above equation, T means the average cell number per ml in the test group after incubation for 48 hours in the presence of the test samples in each concentration, C means the average cell number per ml in the control group after incubation for 48 hours, and Co means the average cell number per ml in the control group at the beginning of incubation. The Y(%) value at each concentration and log10 value of each concentration were obtained and the regression curve was constructed according to the following equation from those obtained values. In this case, when all the Y(%) value obtained at each concentration is greater than 55% or lower than 45%, the experiment was repeatedly conducted.
(§3) To construct the regression curve Y=A+BX the values A and B were obtained using the following equation. [formula]
(§4) In the above, the value N is the number of selected points which is greater than 2 and lower than, or identical with, the number of cencentration of the test sample, Xi is log(concentration) i, and Yi is the growth ratio at (concentration)i. The value of ED50 was obtained for those obtained slope and intercept.

[2] = tested on: K-562 cells; assay: Cytotoxic activity against K-562 cells; assay type: cell-based; details: Homo sapiens; K562 cells, 48 hours, 37° C.; read-out: ED50, cytotoxic activity against K562
Method: As in the test for the cytotoxic activity against L1210 cells, the test samples were dissoved in ethanol or dimethylsulfoxide in a certain concentration. 0.1 ml of the sample solution was mixed with 0.9 ml of a fresh medium to prepare the dilutions. To each two test tubes having a screw cap were added 100, 50, 25 μl, respectively, of the sample dilutions by means of a micropipet. To each test tube for the test group and the control group (2√n: n=number of the samples) was added 5 ml of the dilutions of HL-60 cells and K-562 cells which were cultured and activated before 24 hours from the beginning of experiment and then diluted in a concentration of 1×10^5 cells/mi. All test tubes were cultured for 48 hours in a CO2 incubator at 37° C. and then the number of cells was counted using a haemacytometer.
as §1, §2, §3, §4

[3] = tested on: A549 cancer cells; assay: Cytotoxic activity against A549 cancer cells (sulforhodamin B method); assay type: cell-based; details: Homo sapiens; A549 cells, SRB method, 48 hours; read-out: ED50, cytotoxic activity against A549
Method: The cytotoxic activity against A549 cancer cells was determined using a method for measuring sulforhodamin B (SRB), which was developed in the year 1989 by NIC for measuring anticancer activity of the drug in vitro. For the experiment, cells under subculturing were separated from the attached surface with trypsin-CDTA solution and then dispensed into a 24-well flat-bottom microplate (Falcon) so that the number of cells per well is 8×10^4 (A549). The microplate was incubated in a CO2 incubator for 24 hours to attach the dispensed cells to bottom. The medium was removed with aspirator. Then, 100 μl of the solution of the test compounds diluted in a log-dose of 6 kinds of concentration was added to each well containing cells, in a multiple of 3. The microplate was incubated for further 48 hours. In addition, the diluted solution of the test compounds above was filtered through a 0.22 μm filter, before addition to the cells, to keep the experiment under sterilized condition. The cells were incubated with the test compounds for 48 hours and then the medium was removed from each well. 100 μl of 10% trichloroacetic acid (TCA) was added to each well and then the plate was allowed to stand at 4° C. for one hour to fix the cells to the bottom of plate. After fixing the cells, the plate was washed 5 to 6 times with water to completely remove any remaining TCA solution and then dried at room temperature until water is no longer present. To the completely dried plate was added the dying solution of 0.4% SRB dissolved in 1% acetic acid in an amount of 250 μl per well to stain the cells for 30 minutes and then the plate was washed again 5 to 6 times with 1% acetic acid solution to remove the remaining SRB which is not bound to the cells. The stained cell plate was dried again at room temperature. Then, the dying solution was carefully dissolved in a certain amount of 10 mM Tris so that the O.D. value in the control group at 520 nm is 0.8-1.0 Å (optical density), and the optical density at 520nm was determined. The ED50 value was obtained from the determined optical density. To calculate the activity of the drug against cancer cells, the number of cells (Tz) at the beginning of the addition of drug, the number of cells (C) after incubation with the medium in the absence of drug for 48 hours and the number of cells (T) after incubation in the presence of drugs at each concentration for 48 hours were determined.
The anticancer activity of the test compounds was determined form the following equations. Specifically, in the […] the equation (T-Tz)/(C-Tz)×100 was used and in the case of Tz<T the equation (T-Tz)/Tz×100 was used. Then the IC50 value wich is the concentration of drug which inhibits the growth of cancer cells by 50% was calcualted from the above calculated values using a data regressive function of LOTUS programme and the cytotoxic activities of the test compounds were compared with each other.

[4] = tested on: S-180 sarcoma cells; assay: Animal experiment using Sarcoma S-180 cells (survival of mouse); assay type: in vivo, male ICR mouse; details: ip, S-180 ICR mouse, intraperitoneal, 7 to 8 injections; for responders at 10 µmol/kg / response vs control in vivo at 10 µmol/kg: daily dose 10 μmole (mg/kg/day given per compound); for responders at 5 µmol/kg / response vs control in vivo at 5 µmol/kg: daily dose 5 μmole (mg/kg/day given per compound)
Method: In this experiment, healthy male ICR mouse weighing 20 to 25 g were used as test animal and were fed with water and feed without any restriction in the chamber controlled at the temperature of 23° to 24° C. As the feed, the antibiotic-free feed for mouse was used.
S-180 cells which were incubated for 7 days within abdominal cavity of ICR mouse were separated together with ascites. To the separated cells was added sterilized cold physiological saline and the mixture was centrifuged with 400×g for 2 minutes to separate the cell precipitate. The separated cell precipitate was suspended again in sterilized cold physiological saline and then centrifuged to remove the supernatant. Only S-180 cells were taken, excluding any red bllod cells incorporated therein, washed three times with the same method as above, and then suspended to obtain the cell suspension in concentration of 10^7 cells/ml by counting the number of cells with a haemacytometer. Each 0.1 ml of this cell suspension was transplanted in an abdominal cavity.
After 24 hours from the transplantation, mouse were divided so that each group contains 8 to 9 mouse. The test sample was dissolved in a predetermined amount of dimethylsulfoxide to prepare the stock solution which was stored at 4° C. 30 μl of the stock solution was taken and then mixed with 1.5 ml of physiological saline. 0.1 ml of this mixture was intraperitoneally injected to the test animal. To the control group, 2% dimethylsulfoxide-physiological saline solution was injected. Meanwhile, doxorubicin which is used as the comparative drug was dissolved in 2% dimethylsulfoxide-physiological saline solution and then injected in an amount of 0.5 mg(titer)/kg. The schedule for injection comprises a total of 7 to 8 injections in the manner that after the transplantation of cancer cells 0.1 ml of the test sample per a day is administered for 2 to 4 days followed by the rest for one day. The survival rate was calculated on the basis of the date on which all of one control group is died (approximately 18 to 20 days). The survival rate (T/C, %) was calculated by the following equation as proposed in NIC's protocol: [formula]

[5] = 1200 h, read-out: Number of mouse survived for 50 days (converted)

SMILES | IC50 [1] | IC50 [2] | IC50 [3] | responders at 10 µmol/kg [4, 5] | response vs control in vivo at 10 µmol/kg ([4]; read-out: T/C) | responders at 5 µmol/kg [4, 5] | response vs control in vivo at 5 µmol/kg ([4]; read-out: T/C) | responders at 15 µmol/kg ([4]; 1200 h, daily dose 15 μmole (mg/kg/day given per compound), read-out: Number of mouse survived for 50 days (converted)) | response vs control in vivo at 15 µmol/kg ([4]; daily dose 15 μmole (mg/kg/day given per compound), read-out: T/C)
CCCCCC(=O)OC(CCCCC)C1=CC(=O)c2c(O)ccc(O)c2C1=O (centres unmarked) [2-(1-hexanoyloxyhexyl)-5,8-dihydroxy-1,4-naphthoquinone] | 0.1 µg/mL (≈ 0.257 µM) | 0.2 µg/mL (≈ 0.515 µM) | 0.3 µg/mL (≈ 0.772 µM) | 0% | 151% |  |  |  | 
CCCCCC(OC(C)=O)C1=CC(=O)c2c(O)ccc(O)c2C1=O (centres unmarked) [2-(1-acetoxyhexyl)-5,8-dihydroxy-1,4-naphthoquinone] | 0.08 µg/mL (≈ 0.241 µM) | 0.01 µg/mL (≈ 0.0301 µM) | 0.7 µg/mL (≈ 2.11 µM) |  |  | 25% | 150% |  | 
CC(C)CCC(O)C1=CC(=O)c2c(O)ccc(O)c2C1=O (centres unmarked) [2-(1-hydroxy-4-methylpentyl)-5,8-dihydroxy-1,4-naphthoquinone, reference compound] | 0.05 µg/mL (≈ 0.172 µM) | 0.01 µg/mL (≈ 0.0344 µM) | 0.9 µg/mL (≈ 3.1 µM) |  |  | 0% | 120% |  | 
CC/C=C/CC(=O)OC(CCCCC)C1=CC(=O)c2c(O)ccc(O)c2C1=O (stereo not drawn) [2-[1-(3-trans-hexenoyloxy)-hexyl]-5,8-dihydroxy-1,4-naphthoquinone] | 0.2 µg/mL (≈ 0.518 µM) | 0.2 µg/mL (≈ 0.518 µM) | 1.5 µg/mL (≈ 3.88 µM) | 0% | 105% |  |  |  | 
CCCCCCCCCCCCC(OC(C)=O)C1=CC(=O)c2c(O)ccc(O)c2C1=O (centres unmarked) [2-(1-acetoxytridecyl)-5,8-dihydroxy-1,4-naphthoquinone] | 0.4 µg/mL (≈ 0.929 µM) | 4.2 µg/mL (≈ 9.76 µM) | 15.8 µg/mL (≈ 36.7 µM) | 14.3% | 131% |  |  |  | 
CCCCCC(=O)OC(CCC(C)C)C1=CC(=O)c2c(O)ccc(O)c2C1=O (centres unmarked) | 0.3 µg/mL (≈ 0.772 µM) | 0.05 µg/mL (≈ 0.129 µM) | 0.4 µg/mL (≈ 1.03 µM) | 0% | 151% |  |  |  | 
CCCCCCCC(=O)OC(CCC(C)C)C1=CC(=O)c2c(O)ccc(O)c2C1=O (centres unmarked) [2-(1-octanoyloxy-4-methylpentyl)-5,8-dihydroxy-1,4-naphthoquinone] | 0.5 µg/mL (≈ 1.2 µM) | 0.6 µg/mL (≈ 1.44 µM) | 1.7 µg/mL (≈ 4.08 µM) |  |  |  |  | 0% | 131%
COc1ccc(OC)c2c1C(=O)C=C(C(O)CCC(C)C)C2=O (centres unmarked) [2-(1-hydroxy-4-methylpentyl)-5,8-dimethoxy-1,4-naphthoquinone] | 0.02 µg/mL (≈ 0.0628 µM) | 0.9 µg/mL (≈ 2.83 µM) | 2.2 µg/mL (≈ 6.91 µM) | 0% | 120% |  |  |  | 
CCCCCCCCCC(OC(C)=O)C1=CC(=O)c2c(O)ccc(O)c2C1=O (centres unmarked) [2-(1-acetoxydecyl)-5,8-dihydroxy-1,4-naphthoquinone] | 0.4 µg/mL (≈ 1.03 µM) | 0.1 µg/mL (≈ 0.257 µM) | 0.3 µg/mL (≈ 0.772 µM) | 14.3% | 197% |  |  |  | 
CC/C=C/CC(=O)OC(CCC(C)C)C1=CC(=O)c2c(O)ccc(O)c2C1=O (stereo not drawn) [2-[1-(3-trans-hexenoyloxy)-4-methylpentyl]-5,8-dihydroxy-1,4-naphthoquinone] | 0.05 µg/mL (≈ 0.129 µM) | 0.2 µg/mL (≈ 0.518 µM) | 2.4 µg/mL (≈ 6.21 µM) | 0% | 160% |  |  |  | 
CCCCC(O)C1=CC(=O)c2c(O)ccc(O)c2C1=O (centres unmarked) [2-(1-hydroxypentyl)-5,8-dihydroxy-1,4-naphthoquinone] | 0.04 µg/mL (≈ 0.145 µM) | 0.08 µg/mL (≈ 0.29 µM) | 0.5 µg/mL (≈ 1.81 µM) |  |  |  |  |  | 
CCCCCCCCCCCCC(OC(=O)CCC)C1=CC(=O)c2c(O)ccc(O)c2C1=O (centres unmarked) [2-(1-butanoyloxytridecyl)-5,8-dihydroxy-1,4-naphthoquinone] | 0.6 µg/mL (≈ 1.31 µM) | 2.7 µg/mL (≈ 5.89 µM) | > 20 µg/mL |  |  |  |  |  | 
CCCCCCCCCCCCC(OC(=O)CCCCC)C1=CC(=O)c2c(O)ccc(O)c2C1=O (centres unmarked) [2-(1-hexanoyloxytridecyl)-5,8-dihydroxy-1,4-naphthoquinone] | 1.5 µg/mL (≈ 3.08 µM) | > 20 µg/mL | > 20 µg/mL |  |  |  |  |  | 
CCCCCC(O)C1=CC(=O)c2c(OC)ccc(OC)c2C1=O (centres unmarked) [2-(1-hydroxyhexyl)-5,8-dimethoxy-1,4-naphthoquinone] | 0.3 µg/mL (≈ 0.942 µM) | 0.6 µg/mL (≈ 1.88 µM) | 0.9 µg/mL (≈ 2.83 µM) |  |  |  |  |  | 
